Experimental data: patent US9637518B2, “IAP antagonists” (BRISTOL-MYERS SQUIBB COMPANY, priority 2014, dated 2017)

Legend:
[1] = molecular target: T1, His-BIR3 (241-356, XIAP) (Homo sapiens, UniProt P98170); experiment: XIAP-BIR3/SMAC Homogeneous Time Resolved Fluorescence (HTRF) Assay; type: binding; conditions: 1 nM N-His-BIR3, 5 nM fluorescein labeled SMAC peptide
T1 construct: His-BIR3 (241-356, XIAP)
Experimental: A. XIAP-BIR3/SMAC Homogeneous Time Resolved Fluorescence (HTRF) Assay
Assays were performed in black, flat-bottom, 384-well plates. The final assay volume was 50 μL prepared from additions of His-BIR3 (241-356, XIAP), fluorescein labeled SMAC peptide, and test compounds in assay buffer consisting of 20 mM Sodium Phosphate, 1 mM EDTA, 50 mM NaCl, 50 μg/ml BSA, and 0.05% PLURONIC® F68. The reaction was incubated at room temperature for 60 minutes, following which 10 μl of mouse anti-6×His-terbium labeled Fab (Medarex, Cis-bio) was added to the reaction (40 μl) for an additional 30 minute incubation. The HTRF signal, ratio of fluorescence intensities at emission wavelengths for fluorescein acceptor (520 nm) and terbium donor (615 nm), the 520/615 ratio, generated by the reaction was then measured on the Envision Plate Reader Inhibition data were calculated from the 520/615 ratio generated by the no protein control reactions for 100% inhibition and vehicle-only reactions for 0% inhibition. The final concentration of reagents in the assay was 1 nM N-His-BIR3 (241-356, XIAP), 5 nM fluorescein labeled SMAC peptide, 0.25 nM anti-His-Tb-Fab, and 0.1% DMSO. Dose response curves were generated to determine the concentration required for inhibiting 50% of the HTRF signal (IC50). Compounds were dissolved at 3 mM in dimethylsulfoxide (DMSO) and evaluated at eleven serially diluted concentrations. IC50 and Ki values were derived by non-linear regression analysis.

[2] = molecular target: T2, His-BIR2-3 (125-356, C202A/C213G, XIAP) (Homo sapiens, UniProt P98170, C202A/C213G); experiment: XIAP-BIR2-3 dimeric SMAC Peptide Homogeneous Time Resolved Fluorescence (HTRF) Assay; type: binding; conditions: 0.5 nM N-His-BIR2-3, 20 nM fluorescein labeled dimeric SMAC peptide
T2 construct: His-BIR2-3 (125-356, C202A/C213G, XIAP)
T2 sequence (P98170 125-356 C202A/C213G): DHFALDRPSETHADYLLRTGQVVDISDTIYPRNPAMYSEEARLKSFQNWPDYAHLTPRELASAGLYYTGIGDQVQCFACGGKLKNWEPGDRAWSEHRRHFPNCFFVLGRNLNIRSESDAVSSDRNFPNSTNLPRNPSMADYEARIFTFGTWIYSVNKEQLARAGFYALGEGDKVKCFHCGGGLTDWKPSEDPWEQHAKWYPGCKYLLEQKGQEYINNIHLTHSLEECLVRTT
Experimental: B. XIAP-BIR2-3 dimeric SMAC Peptide Homogeneous Time Resolved Fluorescence (HTRF) Assay
Assays were performed in black, flat-bottom, 384-well plates. The final assay volume was 50 μL prepared from additions of His-BIR2-3 (125-356, C202A/C213G, XIAP), fluorescein labeled dimeric SMAC peptide, and test compounds in assay buffer consisting of 20 mM Sodium Phosphate, 1 mM EDTA, 50 mM NaCl, 50 μg/ml BSA, and 0.05% PLURONIC® F68. The reaction was incubated at room temperature for 60 minutes, following which 10 μl of mouse anti-6×His-Tb IgG (Medarex, Cis-bio) was added to the reaction (40 μl) for an additional 30 minute incubation. The HTRF signal, ratio of fluorescence intensities at emission wavelengths for fluorescein acceptor (520 nm) and terbium donor (615 nm), the 520/615 ratio, generated by the reaction was then measured on the Envision Plate Reader. Inhibition data were calculated from the 520/615 ratio generated by the no protein control reactions for 100% inhibition and vehicle-only reactions for 0% inhibition. The final concentration of reagents in the assay was 0.5 nM N-His-BIR2-3(125-356, C202A/C213G, XIAP), 20 nM fluorescein labeled dimeric SMAC peptide, 0.25 nM anti-His-Tb-Fab, and 0.1% DMSO. Dose response curves were generated to determine the concentration required for inhibiting 50% of the HTRF signal (IC50). Compounds were dissolved at 3 mM in dimethylsulfoxide (DMSO) and evaluated at eleven serially diluted concentrations. IC50 and Ki values were derived by non-linear regression analysis.

T1 sequence (P98170 241-356): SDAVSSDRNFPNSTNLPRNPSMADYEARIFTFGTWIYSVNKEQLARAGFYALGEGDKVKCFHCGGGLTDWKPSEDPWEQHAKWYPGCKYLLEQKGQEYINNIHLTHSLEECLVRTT

For `CN[C@@H](C)C(=O)N[C@H](C(=O)N1C[C@@H](c2ccc(C[C@H](NC(=O)[C@@H](NC(=O)[C@H](C)NC)C(C)(C)SCC(=O)N(C)C[C@@H](O)CO)C(=O)N[C@@H]3CCCc4ccccc43)cc2)C[C@H]1C(=O)N[C@@H]1CCCc2ccccc21)C(C)(C)C` [Example 1, (2S,4R)-4-(4-((S)-2-((R)-3-((2-(((R)-2,3-Dihydroxypropyl)(methyl)amino)-2-oxoethyl)thio)-3-methyl-2-((S)-2-(methylamino)propanamido)butanamido)-3-oxo-3-(((R)-1,2,3,4-tetrahydronaphthalen-1-yl)amino)propyl)phenyl)-1-((S)-3,3-dimethyl-2-((S)-2-(methylamino)propanamido)butanoyl)-N—((R)-1,2,3,4-tetrahydronaphthalen-1-yl)pyrrolidine-2-carboxamide], which IC50 [1] is on record?
Its IC50 is 1.7 nM.

What about the IC50 [2] of the same compound?
Its IC50 is 12.3 nM.

How did the IC50 [1] turn out when `CN[C@@H](C)C(=O)N[C@H](C(=O)N1C[C@@H](c2ccc(C[C@H](NC(=O)[C@@H](NC(=O)[C@H](C)NC)C(C)(C)SCCO)C(=O)N[C@@H]3CCCc4ccccc43)cc2)C[C@H]1C(=O)N[C@@H]1CCCc2ccccc21)C(C)(C)C` [Example 2, (2S,4R)-1-((S)-3,3-Dimethyl-2-((S)-2-(methylamino)propanamido)butanoyl)-4-(4-((S)-2-((R)-3-((2-hydroxyethyl)thio)-3-methyl-2-((S)-2-(methylamino)propanamido)butanamido)-3-oxo-3-(((R)-1,2,3,4-tetrahydronaphthalen-1-yl)amino)propyl)phenyl)-N—((R)-1,2,3,4-tetrahydronaphthalen-1-yl)pyrrolidine-2-carboxamide] was run?
The IC50 was 1.7 nM.

And the IC50 [2]?
Its IC50 is 7 nM.

Which IC50 [1] does the source give for `CN[C@@H](C)C(=O)N[C@H](C(=O)N[C@@H](Cc1ccc([C@H]2C[C@@H](C(=O)N[C@@H]3CCCc4ccccc43)N(C(=O)[C@@H](NC(=O)[C@H](C)NC)C(C)(C)C)C2)cc1)C(=O)N[C@@H]1CCCc2ccccc21)C(C)(C)C` [Example 3, (2S,4R)-4-(4-((S)-2-((S)-3,3-Dimethyl-2-((S)-2-(methylamino)propanamido)butanamido)-3-oxo-3-(((R)-1,2,3,4-tetrahydronaphthalen-1-yl)amino)propyl)phenyl)-1-((S)-3,3-dimethyl-2-((S)-2-(methylamino)propanamido)butanoyl)-N—((R)-1,2,3,4-tetrahydronaphthalen-1-yl)pyrrolidine-2-carboxamide] here?
Its IC50 is 1.1 nM.

What about the IC50 [2] of the same compound?
The IC50 was 6.8 nM.

What does the source list for `CN[C@@H](C)C(=O)N[C@H](C(=O)N1C[C@@H](NC(=O)c2ccc(C(=O)Nc3ccc(C[C@H](NC(=O)[C@@H](NC(=O)[C@H](C)NC)C(C)(C)SC)C(=O)N[C@@H]4CCCc5ccccc54)cc3)cc2)C[C@H]1C(=O)N[C@@H]1CCCc2ccccc21)C(C)(C)C` [Example 4, N^1-((3S,5S)-1-((S)-3,3-Dimethyl-2-((S)-2-(methylamino)propanamido)butanoyl)-5-(((R)-1,2,3,4-tetrahydronaphthalen-1-yl)carbamoyl)pyrrolidin-3-yl)-N^4-(4-((S)-2-((R)-3-methyl-2-((S)-2-(methylamino)propanamido)-3-(methylthio)butanamido)-3-oxo-3-(((R)-1,2,3,4-tetrahydronaphthalen-1-yl)amino)propyl)phenyl)terephthalamide]?
IC50 [1]: 13.8 nM; IC50 [2]: 2.9 nM

With `CN[C@@H](C)C(=O)N[C@H](C(=O)N[C@@H](Cc1ccc(C(=O)N[C@H]2C[C@@H](C(=O)N[C@@H]3CCCc4ccccc43)N(C(=O)[C@@H](NC(=O)[C@H](C)NC)C(C)(C)C)C2)cc1)C(=O)N[C@@H]1CCCc2ccccc21)C(C)(C)C` [Example 5, (2S,4S)-4-(4-((S)-2-((S)-3,3-Dimethyl-2-((S)-2-(methylamino)propanamido)butanamido)-3-oxo-3-(((R)-1,2,3,4-tetrahydronaphthalen-1-yl)amino)propyl)benzamido)-1-((S)-3,3-dimethyl-2-((S)-2-(methylamino)propanamido)butanoyl)-N—((R)-1,2,3,4-tetrahydronaphthalen-1-yl)pyrrolidine-2-carboxamide] as the compound, how does the IC50 [1] read?
Its IC50 is 9 nM.

And the IC50 [2]?
The IC50 was 13.7 nM.

For `CN[C@@H](C)C(=O)N[C@H](C(=O)N1C[C@@H](c2ccc(C[C@H](NC(=O)[C@@H](NC(=O)[C@H](C)NC)C(C)(C)SCC(=O)NC(CO)CO)C(=O)NC3CCCc4ccccc43)cc2)C[C@H]1C(=O)NC1CCCc2ccccc21)C(C)(C)C` (stereo partly shown) [Example 6], which IC50 [1] is on record?
Its IC50 is 1.4 nM.

And the IC50 [2]?
Its IC50 is 8.1 nM.

For `CN[C@@H](C)C(=O)N[C@H](C(=O)N[C@@H](Cc1ccc([C@H]2C[C@@H](C(=O)N[C@@H](COC)c3ccccc3)N(C(=O)[C@@H](NC(=O)[C@H](C)NC)C(C)(C)C)C2)cc1)C(=O)N[C@@H]1CCCc2ccccc21)C(C)(C)C` [Example 7, (2S,4R)-4-(4-((S)-2-((S)-3,3-Dimethyl-2-((S)-2-(methylamino)propanamido)butanamido)-3-oxo-3-(((R)-1,2,3,4-tetrahydronaphthalen-1-yl)amino)propyl)phenyl)-1-((S)-3,3-dimethyl-2-((S)-2-(methylamino)propanamido)butanoyl)-N-((R)-2-methoxy-1-phenylethyl)pyrrolidine-2-carboxamide], which IC50 [1] is on record?
Its IC50 is 48.4 nM.

And the IC50 [2]?
The IC50 was 140 nM.

What does the source list for `CN[C@@H](C)C(=O)N[C@H](C(=O)N[C@@H](Cc1ccc(NC(=O)c2ccc(C(=O)N[C@H]3C[C@@H](C(=O)N[C@@H]4CCCc5ccccc54)N(C(=O)[C@@H](NC(=O)[C@H](C)NC)C(C)(C)C)C3)cc2)cc1)C(=O)N[C@@H]1CCCc2ccccc21)C1CCCCC1` [Example 8, N^1-(4-((S)-2-((S)-2-Cyclohexyl-2-((S)-2-(methylamino)propanamido)acetamido)-3-oxo-3-(((R)-1,2,3,4-tetrahydronaphthalen-1-yl)amino)propyl)phenyl)-N^4-((3S,5S)-1-((S)-3,3-dimethyl-2-((S)-2-(methylamino)propanamido)butanoyl)-5-(((R)-1,2,3,4-tetrahydronaphthalen-1-yl)carbamoyl)pyrrolidin-3-yl)terephthalamide]?
IC50 [1]: 119 nM; IC50 [2]: 9.5 nM
